This note sets out measurements from US5773449A, “Thioquinolone compounds which have useful pharmaceutical activity” (Zenyaku Kogyo Kabushiki Kaisha, priority 1994, dated 1998).

Molecules are shown by their SMILES. Values after ≈ are worked out from the molar mass of the structure shown.

Common to all, as to type: cell-based
For experiment [1], the system named is B.subtilis PCI 219. As to the kind of experiment: Antibacterial Test 2: agar plate dilution method (aerobic MIC method), B.subtilis. To be noted: Bacillus subtilis, PCI219, sensitive-disk agar medium-N. The protocol: (§1) Then, tested were antibacterial activities of the typical compounds of the present invention against gram-positive and-negative bacteria other than Hp. MICs of the typical compounds of the present invention were determined in substantial accordance with agar plate dilution method (aerobic MIC method) based on Standard method of The Japan Society of Chemotherapy.
(§2) The respective test compound were dissolved in dimethyl sulfoxide (DMSO) and serially diluted twofold. These diluted solutions of the compounds were respectively added to sensitive-disk agar medium-N (manufactured by NISSUI SEIYAKU) to prepare agar plates for determination with concentration of 0.05-100 μg/ml.
(§3) The below-mentioned strains freezingly conserved at -135° C. were thawed in a warm bath (40° C.), cultured in a sensitivity-determining bouillon at 37° C. for 18-20 hours, and then diluted with the above-mentioned medium to prepare about 1.0×10^6CFU/ml of bacterial solution.
(§4) Inoculation was made by 5 μl by multi-inoculator (manufactured by SAKUMA SEISAKUSHO). Culturing was made under the same conditions as those of the pre-culturing and the MIC (unit: μg/ml) was determined by observing whether the bacteria grew or not.

The test system of experiment [2] is P.aeruginosa IFO 3445. As to the kind of experiment: Antibacterial Test 2: agar plate dilution method (aerobic MIC method), P.aeruginosa. To be noted: Pseudomonas aeruginosa, IFO3445, sensitive-disk agar medium-N. On the procedure: as §1, §2, §3, §4
For experiment [3], the system named is E.faecalis RIMD 3336001. As to the kind of experiment: Antibacterial Test 2: agar plate dilution method (aerobic MIC method), E.faecalis. As to conditions: Enterococcus faecalis, RIMD3336001, sensitive-disk agar medium-N. The protocol:
as §1, §2, §3, §4

For experiment [4], the system named is Helicobacter pylori standard strain ATCC 43526 (NCTC 11916). As to the kind of experiment: Antibacterial test 1: agar plate dilution method (anaerobic MIC method) against Hp. As to conditions: 72 h; Helicobacter pylori ATCC 43526 (NCTC 11916); brucella agar + 7% horse blood, microaerobic, 37° C., 3 days. The protocol:
Antibacterial test against Hp was performed in substantial accordance with agar plate dilution method (anaerobic MIC method) based on Standard method of The Japan Society of Chemotherapy to determine minimum inhibitory concentration (MIC) of the respective test compounds. The respective test compounds were sequentially dissolved in dimethyl sulfoxide (DMSO) and serially diluted twofold. […] Strain used for inoculation was Helicobacter pylori standard strain ATCC 43526 (NCTC 11916). For pre-culturing of bacteria to be inoculated, the above-mentioned strain freezingly conserved at -135° C. was thawed in a warm bath (40° C.), applied on a brucella agar medium containing 7% horse blood free from fibrin, and microaerobically cultured in a jar for anaerobic bacteria at 37° C. for 3 days. The solution of bacteria to be inoculated was prepared by collecting colonies grown on the culture medium and suspending the same in the brucella broth.

The test system of experiment [5] is S.aureus FDA 209P. In words: Antibacterial Test 2: agar plate dilution method (aerobic MIC method), S.aureus. To be noted: Staphylococcus aureus, FDA209P, sensitive-disk agar medium-N. On the procedure: as §1, §2, §3, §4
Experiment [6] deals with E.coli NIHJ JC-2. As to the kind of experiment: Antibacterial Test 2: agar plate dilution method (aerobic MIC method), E.coli. As to conditions: Escherichia coli, NIHJJC2, sensitive-disk agar medium-N. The protocol: as §1, §2, §3, §4
The subject of experiment [7] is M.luteus ATCC 9341. As to the kind of experiment: Antibacterial Test 2: agar plate dilution method (aerobic MIC method), M.luteus. As to conditions: Micrococcus luteus, ATCC9341, sensitive-disk agar medium-N. On the procedure:
as §1, §2, §3, §4

In experiment [8] the test system is K.pneumoniae PCI 602. As to the kind of experiment: Antibacterial Test 2: agar plate dilution method (aerobic MIC method), K.pneumoniae. To be noted: Klebsiella pneumoniae, PCI602, sensitive-disk agar medium-N. On the procedure:
as §1, §2, §3, §4

Usually MIC stands for the smallest concentration in the dilution series that meets the test's criterion for growth inhibition. In the case of `CC1(C)S[C@@H]2[C@H](NC(=O)[C@H](N)c3ccc(O)cc3)C(=O)N2[C@H]1C(=O)O` [amoxicillin, reference compound], the MIC is 0.2 µg/mL (≈ 0.547 µM) in experiment [1]; > 100 µg/mL in experiment [2]; 0.2 µg/mL (≈ 0.547 µM) in experiment [3]; 0.05 µg/mL in experiment [4]; 0.1 µg/mL (≈ 0.274 µM) in experiment [5]; 3.13 µg/mL (≈ 8.57 µM) in experiment [6]. Besides, the MIC is ≤ 0.05 µg/mL in experiment [7] and 50 µg/mL (≈ 137 µM) in experiment [8].
For `COc1ccc2c(=S)cc[nH]c2c1` [compound 1, 7-Methoxyquinoline-4(1H)-thione], the MIC in experiment [1] was > 100 µg/mL; in experiment [2] it was > 100 µg/mL; in experiment [3] it was > 100 µg/mL; in experiment [4] it was 0.39 µg/mL; in experiment [5], 50 µg/mL (≈ 261 µM); in experiment [6] it was > 100 µg/mL. For the same compound, the MIC in experiment [7] and in experiment [8] was > 100 µg/mL each time.
`CC(C)c1ccc2c(=S)cc[nH]c2c1` [compound 2, 7-Isopropylquinoline-4(1H)-thione]: the minimal inhibitory concentration (MIC) in experiment [1] was > 100 µg/mL; in experiment [2], > 100 µg/mL; in experiment [3], > 100 µg/mL; in experiment [4] it was 1.56 µg/mL; in experiment [5], > 100 µg/mL; in experiment [6], > 100 µg/mL. The MIC in experiment [7] and in experiment [8] was > 100 µg/mL in each case.
Take `S=c1cc[nH]c2cc(-c3ccccc3)ccc12` [compound 3, 7-Phenylquinoline-4(1H)-thione]: the MIC is > 100 µg/mL in experiment [1]; > 100 µg/mL in experiment [2]; > 100 µg/mL in experiment [3]; 1.56 µg/mL in experiment [4]; > 100 µg/mL in experiment [5]; > 100 µg/mL in experiment [6]. Further, the minimal inhibitory concentration (MIC) in experiment [7] and in experiment [8] was > 100 µg/mL each time.
Turning to `S=c1cc[nH]c2cc(COc3ccccc3)ccc12` [compound 6, 7-Phenoxymethylquinoline-4(1H)-thione], the MIC in experiment [1] was > 100 µg/mL; in experiment [2] it was > 100 µg/mL; in experiment [3], > 100 µg/mL; in experiment [4], 1.56 µg/mL; in experiment [5], > 100 µg/mL; in experiment [6], > 100 µg/mL. For the same compound, the MIC in experiment [7] and in experiment [8] was > 100 µg/mL each time.
On to `O=[N+]([O-])c1cccc2c(=S)cc[nH]c12` [compound 7, 8-Nitroquinoline-4(1H)-thione], for which the MIC in experiment [4] came out at 6.25 µg/mL.
On the same count and under the same terms, the value for `Cc1ccc2c(=S)cc[nH]c2c1` [compound 11, 7-Methylquinoline-4(1H)-thione] was 0.39 µg/mL; that for `NC(=O)c1ccc2c(=S)cc[nH]c2c1` [compound 12, 7-Carbamoylquinoline-4(1H)-thione] was 6.25 µg/mL.
Consider `CC(=O)c1ccc2c(=S)cc[nH]c2c1` [compound 13, 7-Acetylquinoline-4(1H)-thione], for which, in experiment [4], the minimal inhibitory concentration (MIC) turned out to be 1.56 µg/mL.
`CCCCCCc1ccc2c(=S)cc[nH]c2c1` [compound 15, 7-n-Hexylquinoline-4(1H)-thione]: the MIC in experiment [1] was > 100 µg/mL; in experiment [2], > 100 µg/mL; in experiment [3], > 100 µg/mL; in experiment [4], 0.39 µg/mL; in experiment [5], > 100 µg/mL; in experiment [6], > 100 µg/mL. Also, the MIC in experiment [7] and in experiment [8] was > 100 µg/mL each time.
`COCc1ccc2c(=S)cc[nH]c2c1` [compound 16, 7-Methoxymethylquinoline-4(1H)-thione]: the MIC in experiment [1] was 100 µg/mL (≈ 487 µM); in experiment [2] it was > 100 µg/mL; in experiment [3] it was 50 µg/mL (≈ 244 µM); in experiment [4] it was 1.56 µg/mL; in experiment [5], 50 µg/mL (≈ 244 µM); in experiment [6], > 100 µg/mL. Further, the values for the minimal inhibitory concentration (MIC) in experiment [7] and in experiment [8] were 100 µg/mL (≈ 487 µM) and > 100 µg/mL, respectively.
Turning to `CSc1ccc2c(=S)cc[nH]c2c1` [compound 17, 7-Methylthioquinoline-4(1H)-thione], the minimal inhibitory concentration (MIC) in experiment [1] was > 100 µg/mL; in experiment [2], > 100 µg/mL; in experiment [3], > 100 µg/mL; in experiment [4], 0.39 µg/mL; in experiment [5], > 100 µg/mL; in experiment [6], > 100 µg/mL. Further, the MIC in experiment [7] and in experiment [8] was > 100 µg/mL throughout.
With `O=[N+]([O-])c1ccc2c(=S)cc[nH]c2c1` [compound 19, 7-Nitroquinoline-4(1H)-thione], the MIC in experiment [4] was 3.13 µg/mL.
Turning to `CCOc1ccc2c(=S)cc[nH]c2c1` [compound 22, 7-Ethoxyquinoline-4(1H)-thione], the minimal inhibitory concentration (MIC) is > 100 µg/mL in experiment [1]; > 100 µg/mL in experiment [2]; > 100 µg/mL in experiment [3]; 3.13 µg/mL in experiment [4]; > 100 µg/mL in experiment [5]; > 100 µg/mL in experiment [6]. The MIC in experiment [7] and in experiment [8] was > 100 µg/mL each time.
For the compound `CC(C)Oc1ccc2c(=S)cc[nH]c2c1` [compound 23, 7-Isopropyloxyquinoline-4(1H)-thione], the minimum inhibitory concentration (MIC) in experiment [1] is > 100 µg/mL; in experiment [2], > 100 µg/mL; in experiment [3] it was > 100 µg/mL; in experiment [4], 0.78 µg/mL; in experiment [5], > 100 µg/mL; in experiment [6], > 100 µg/mL. Besides, the MIC in experiment [7] and in experiment [8] was > 100 µg/mL in each case.
With `CCCCCCOc1ccc2c(=S)cc[nH]c2c1` [compound 24, 7-n-Hexyloxyquinoline-4(1H)-thione], the MIC was > 100 µg/mL in experiment [1]; > 100 µg/mL in experiment [2]; > 100 µg/mL in experiment [3]; 1.56 µg/mL in experiment [4]; > 100 µg/mL in experiment [5]; > 100 µg/mL in experiment [6]. Moreover, the minimum inhibitory concentration (MIC) in experiment [7] and in experiment [8] was > 100 µg/mL throughout.
For `S=c1cc[nH]c2cc(OCc3ccccc3)ccc12` [compound 25, 7-Benzyloxyquinoline-4(1H)-thione], in experiment [4], the MIC was found to be 6.25 µg/mL.
Consider `CCCOc1ccc2c(=S)cc[nH]c2c1` [compound 26, 7-n-Propoxyquinoline-4(1H)-thione], for which the minimum inhibitory concentration (MIC) was > 100 µg/mL in experiment [1]; > 100 µg/mL in experiment [2]; > 100 µg/mL in experiment [3]; 1.56 µg/mL in experiment [4]; 100 µg/mL (≈ 456 µM) in experiment [5]; > 100 µg/mL in experiment [6]. Besides, the MIC in experiment [7] and in experiment [8] was > 100 µg/mL each time.
`CS(=O)(=O)Oc1ccc2c(=S)cc[nH]c2c1` [compound 28, 7-Methanesulfonyloxyquinoline-4(1H)-thione]: the MIC is > 100 µg/mL in experiment [1]; > 100 µg/mL in experiment [2]; 50 µg/mL (≈ 196 µM) in experiment [3]; 0.39 µg/mL in experiment [4]; 25 µg/mL (≈ 97.9 µM) in experiment [5]; > 100 µg/mL in experiment [6]. The MIC in experiment [7] is 50 µg/mL (≈ 196 µM); in experiment [8], > 100 µg/mL.
As to `CN(C)Cc1ccc2c(=S)cc[nH]c2c1` [compound 33, 7-N,N-Dimethylaminomethylquinoline-4(1H)-thione], in experiment [4], the minimum inhibitory concentration (MIC) amounted to 6.25 µg/mL.
On the same count and under the same terms, the value for `COc1cccc2c(=S)cc[nH]c12` [compound 42, 8-Methoxyquinoline-4(1H)-thione] was 0.39 µg/mL; that for `S=c1cc[nH]c2c1ccc1cccnc12` [compound 45, 1,10-Phenanthroline-4(1H)-thione] was 0.39 µg/mL; that for `S=c1cc[nH]c2cc(-c3ccc4ccccc4c3)ccc12` [compound 46, 7-(2-Naphtyl)quinoline-4(1H)-thione] was 3.13 µg/mL.
On the same count and under the same terms, the value for `CCCCCCCCCCCCOc1ccc2c(=S)cc[nH]c2c1` [compound 52, 7-Dodecyloxyquinoline-4(1H)-thione] was 6.25 µg/mL.
